Results taken from ChEMBL document CHEMBL5143590, “Dihydropyrimidinone imidazoles as unique structural antibacterial agents for drug-resistant gram-negative pathogens” (Eur J Med Chem, 2022).
≈ marks a conversion by molar mass, not a printed value.

Assays:
Format in all cases: functional
Staphylococcus aureus [1] = test: Antibacterial activity against methicillin-resistant Staphylococcus aureus N315 assessed as inhibition of bacterial growth by two fold serial dilution method
Enterococcus faecalis = test: Antibacterial activity against Enterococcus faecalis assessed as inhibition of bacterial growth by two fold serial dilution method
Staphylococcus aureus [2] = test: Antibacterial activity against Staphylococcus aureus assessed as inhibition of bacterial growth by two fold serial dilution method
Staphylococcus aureus [3] = test: Antibacterial activity against Staphylococcus aureus 25923 assessed as inhibition of bacterial growth by two fold serial dilution method
Staphylococcus aureus [4] = test: Antibacterial activity against Staphylococcus aureus 29213 assessed as inhibition of bacterial growth by two fold serial dilution method
Klebsiella pneumoniae = test: Antibacterial activity against Klebsiella pneumoniae assessed as inhibition of bacterial growth by two fold serial dilution method
Escherichia coli [5] = test: Antibacterial activity against Escherichia coli assessed as inhibition of bacterial growth by two fold serial dilution method
Escherichia coli [6] = test: Antibacterial activity against Escherichia coli 25922 assessed as inhibition of bacterial growth by two fold serial dilution method
Pseudomonas aeruginosa [7] = test: Antibacterial activity against Pseudomonas aeruginosa assessed as inhibition of bacterial growth by two fold serial dilution method
Pseudomonas aeruginosa [8] = test: Antibacterial activity against Pseudomonas aeruginosa 27853 assessed as inhibition of bacterial growth by two fold serial dilution method
Acinetobacter baumannii = test: Antibacterial activity against Acinetobacter baumannii assessed as inhibition of bacterial growth by two fold serial dilution method

SMILES | MIC (Staphylococcus aureus [1]) [µg/mL] | MIC (Enterococcus faecalis) [µg/mL] | MIC (Staphylococcus aureus [2]) [µg/mL] | MIC (Staphylococcus aureus [3]) [µg/mL] | MIC (Staphylococcus aureus [4]) [µg/mL] | MIC (Klebsiella pneumoniae) [µg/mL] | MIC (Escherichia coli [5]) [µg/mL] | MIC (Escherichia coli [6]) [µg/mL] | MIC (Pseudomonas aeruginosa [7]) [µg/mL] | MIC (Pseudomonas aeruginosa [8]) [µg/mL] | MIC (Acinetobacter baumannii) [µg/mL]
CCCCc1nc(Cl)c(C2NC(=O)NC(CN(c3ccc(OC)nn3)S(=O)(=O)c3ccc(N)cc3)=C2C(=O)OCC)[nH]1 (centres undefined) | 32 (≈ 51.7 µM) | 64 (≈ 103 µM) | 32 (≈ 51.7 µM) | 64 (≈ 103 µM) | 64 (≈ 103 µM) | 16 (≈ 25.8 µM) | 128 (≈ 207 µM) | 64 (≈ 103 µM) | 128 (≈ 207 µM) | 16 (≈ 25.8 µM) | 64 (≈ 103 µM)
CCCCc1nc(Cl)c(C2NC(=O)NC(C)=C2C(=O)OCC)n1Cc1ccc(Cl)c(Cl)c1 (centres undefined) | 32 (≈ 64 µM) | 64 (≈ 128 µM) | 32 (≈ 64 µM) | 32 (≈ 64 µM) | 64 (≈ 128 µM) | 64 (≈ 128 µM) | 128 (≈ 256 µM) | 64 (≈ 128 µM) | 128 (≈ 256 µM) | 64 (≈ 128 µM) | 128 (≈ 256 µM)
CCCCc1nc(Cl)c(C2NC(=O)NC(C)=C2C(=O)OCC)n1CC (centres undefined) | 64 (≈ 174 µM) | 64 (≈ 174 µM) | 64 (≈ 174 µM) | 128 (≈ 347 µM) | 256 (≈ 694 µM) | 64 (≈ 174 µM) | 64 (≈ 174 µM) | 32 (≈ 86.8 µM) | 64 (≈ 174 µM) | 128 (≈ 347 µM) | 128 (≈ 347 µM)
C=CCn1c(CCCC)nc(Cl)c1C1NC(=O)NC(C)=C1C(=O)OCC (centres undefined) | 64 (≈ 168 µM) | 64 (≈ 168 µM) | 32 (≈ 84 µM) | 128 (≈ 336 µM) | 64 (≈ 168 µM) | 64 (≈ 168 µM) | 64 (≈ 168 µM) | 64 (≈ 168 µM) | 64 (≈ 168 µM) | 128 (≈ 336 µM) | 64 (≈ 168 µM)
NC1CCN(c2c(F)cc3c(=O)c(C(=O)O)cn(C4CC4)c3c2Cl)C1 (centres undefined) [CLINAFLOXACIN] | 1 (≈ 2.73 µM) | 0.5 (≈ 1.37 µM) | 0.5 (≈ 1.37 µM) | 0.5 (≈ 1.37 µM) | 0.5 (≈ 1.37 µM) | 1 (≈ 2.73 µM) | 0.5 (≈ 1.37 µM) | 1 (≈ 2.73 µM) | 1 (≈ 2.73 µM) | 1 (≈ 2.73 µM) | 2 (≈ 5.47 µM)
CCCCc1nc(Cl)c(C2NC(=O)NC(C)=C2C(=O)OCC)n1S(=O)(=O)c1ccc(C(F)(F)F)cc1 (centres undefined) | 8 (≈ 14.6 µM) | 16 (≈ 29.1 µM) | 64 (≈ 117 µM) | 32 (≈ 58.3 µM) | 8 (≈ 14.6 µM) | 64 (≈ 117 µM) | 32 (≈ 58.3 µM) | 64 (≈ 117 µM) | 32 (≈ 58.3 µM) | 64 (≈ 117 µM) | 16 (≈ 29.1 µM)
C#CCn1c(CCCC)nc(Cl)c1C1NC(=O)NC(C)=C1C(=O)OCC (centres undefined) | 64 (≈ 169 µM) | 64 (≈ 169 µM) | 64 (≈ 169 µM) | 128 (≈ 338 µM) | 64 (≈ 169 µM) | 32 (≈ 84.5 µM) | 128 (≈ 338 µM) | 64 (≈ 169 µM) | 64 (≈ 169 µM) | 128 (≈ 338 µM) | 64 (≈ 169 µM)
CCCCc1nc(Cl)c(C2NC(=O)NC(C)=C2C(=O)OCC)n1S(=O)(=O)c1cccc(Br)c1 (centres undefined) | 32 (≈ 57.2 µM) | 16 (≈ 28.6 µM) | 32 (≈ 57.2 µM) | 64 (≈ 114 µM) | 64 (≈ 114 µM) | 16 (≈ 28.6 µM) | 32 (≈ 57.2 µM) | 32 (≈ 57.2 µM) | 32 (≈ 57.2 µM) | 16 (≈ 28.6 µM) | 32 (≈ 57.2 µM)
CCCCc1nc(Cl)c(C2NC(=O)NC(C)=C2C(=O)OCC)n1Cc1ccccc1Cl (centres undefined) | 16 (≈ 34.4 µM) | 32 (≈ 68.8 µM) | 32 (≈ 68.8 µM) | 16 (≈ 34.4 µM) | 128 (≈ 275 µM) | 128 (≈ 275 µM) | 32 (≈ 68.8 µM) | 32 (≈ 68.8 µM) | 64 (≈ 138 µM) | 32 (≈ 68.8 µM) | 32 (≈ 68.8 µM)
CCCCc1nc(Cl)c(C2NC(=O)NC(C)=C2C(=O)OCC)n1Cc1ccc(Cl)cc1 (centres undefined) | 64 (≈ 138 µM) | 64 (≈ 138 µM) | 64 (≈ 138 µM) | 64 (≈ 138 µM) | 64 (≈ 138 µM) | 64 (≈ 138 µM) | 64 (≈ 138 µM) | 64 (≈ 138 µM) | 128 (≈ 275 µM) | 64 (≈ 138 µM) | 32 (≈ 68.8 µM)
CCCCc1nc(Cl)c(C2NC(=O)NC(C)=C2C(=O)OCC)n1S(=O)(=O)c1ccc(F)cc1 (centres undefined) | 16 (≈ 32.1 µM) | 64 (≈ 128 µM) | 64 (≈ 128 µM) | 64 (≈ 128 µM) | 32 (≈ 64.1 µM) | 128 (≈ 257 µM) | 32 (≈ 64.1 µM) | 32 (≈ 64.1 µM) | 32 (≈ 64.1 µM) | 64 (≈ 128 µM) | 64 (≈ 128 µM)
CCCCc1nc(Cl)c(C2NC(=O)NC(CN(c3nccs3)S(=O)(=O)c3ccc(N)cc3)=C2C(=O)OCC)[nH]1 (centres undefined) | 128 (≈ 215 µM) | 256 (≈ 431 µM) | 256 (≈ 431 µM) | 256 (≈ 431 µM) | 256 (≈ 431 µM) | 256 (≈ 431 µM) | 256 (≈ 431 µM) | 256 (≈ 431 µM) | 256 (≈ 431 µM) | 256 (≈ 431 µM) | 256 (≈ 431 µM)
CCCCc1nc(Cl)c(C2NC(=O)NC(CN(c3nnc(C)s3)S(=O)(=O)c3ccc(N)cc3)=C2C(=O)OCC)[nH]1 (centres undefined) | 64 (≈ 105 µM) | 8 (≈ 13.1 µM) | 128 (≈ 210 µM) | 256 (≈ 420 µM) | 128 (≈ 210 µM) | 64 (≈ 105 µM) | 128 (≈ 210 µM) | 128 (≈ 210 µM) | 64 (≈ 105 µM) | 64 (≈ 105 µM) | 128 (≈ 210 µM)
CCCCc1nc(Cl)c(C2NC(=O)NC(C)=C2C(=O)OCC)n1CCF (centres undefined) | 128 (≈ 331 µM) | 64 (≈ 165 µM) | 32 (≈ 82.7 µM) | 64 (≈ 165 µM) | 64 (≈ 165 µM) | 128 (≈ 331 µM) | 32 (≈ 82.7 µM) | 128 (≈ 331 µM) | 64 (≈ 165 µM) | 64 (≈ 165 µM) | 64 (≈ 165 µM)
